Measured values reported in patent US20040176430A1, “Propargyl-trifluoromethoxy-amino-benzothiazole derivatives” (priority 2002, published 2004).
Several values for one entry are separate records, joined by “and”; a condition that tells them apart may be missing. Equal entries are not always repeated.

Columns and labels:
EAE = test: Experimental Allergic Encephalomyelitis (EAE) model of MS; type: in vivo, mice; settings: 10 mg/kg twice daily, oral gavage, 30 days
Procedure: EAE is an accepted animal model of autoimmune disorder (Tisch et al. Proc. Natl. Acad. Sci. USA (1994) 91:437-438). EAE was induced by injecting the encephalitogenic agent consisting of MSCH and commercial CFA containing Mycobacterium tuberculosis H37Ra to the foot-pads of the animals and pertussis toxin intravenously.
GA-DS in MSCH emulsion was injected in the four footpads. The other compounds were administered to the respective groups by oral gavage twice daily for 30 consecutive days starting from the day of induction until the termination of the study.
Scoring of EAE clinical signs was initiated from Day 10 post-EAE induction and was continued daily for 20 days. The clinical signs were recorded on observation cards according to a grading system described in the table below.
The number of dead or moribund animals in each group were summed.
The mortality rate was calculated as: [formula]
The mean maximal score (MMS) of each group was calculated as Σ maximal score of each mouse/number of mice in the group.
The percent inhibition was calculated as [formula]
The daily scores of each mouse in the test group was summed and the individual mean daily score (IMS) was calculated as IMS=daily score of mouse/observation period (days).
The mean group score (GMS) will be calculated as Σ IMS of each mouse/number of mice in the group.
The percent inhibition will be calculated as [formula]

PC-12 cells = test: Effect on MPP+ treated PC-12 cells (LDH release); type: cell-based; settings: MPP+ 1000 μM for 48 hours, tested compound 10 μM added 30 min prior to MPP+
Procedure: Pheochromocytoma PC-12 cells (at a density of 200,000 cells/well) were cultured for 10 days with 50 ng/ml NGF on 6-well culture dishes coated with 200 ug/ml rat tail type I collagen (BD Biosciences, Bedford, Mass., USA). On the day of the experiment the morphological differentiation of the cells was very advanced (typical network formation). In order to initiate the neurotoxic insult, cells were treated with 1000 μM of 1-methyl-4-phenylpyrdinium (MPP+) iodide salt from RBI chemicals (Natick, Mass., USA) for 48 hours in the absence or presence of tested compounds, added to the culture 30 min. prior to MPP+ administration. […] At the cellular level, neuronal cell death is induced by several mechanisms including pathological concentrations of intracellular calcium and free oxygen radicals. Therefore the positive control in this experiment was nimodipine at the concentration of 10 μM (RBI chemicals, Natick, Mass., USA)(a potent L-type calcium channel blocker). At the end of the experiment cell death was measured by assessing Lactate dehydrogenase (LDH) activity in the medium. High medium LDH indicated increased neuronal death that promoted leakage of this cytoplasmic enzyme into the medium.
Measuring lactate dehydrogenase activity in the medium was performed using a Sigma Diagnostics LD-L reagent. LDH activity was spectrophotometrically monitored at 340 nm by following the rate of conversion of oxidized nicotinamide adenine dinucleotide (NAD^+) to the reduced form of (NADH). Total LDH of each culture (extracellular+intracellular) was obtained by measuring LDH in the medium after freezing and thawing of the cultures. Basal LDH release was measured in untreated cultures (no MPP+). The neurotoxic effect was calculated according to the formula: (LDHs−LDHb)/LDHt×100. (s=sample; b=basal; t=total). Each compound was tested in sixplicate.

C57bl mice = test: Effect on MPP+ toxicity in mice (striatal dopamine and DOPAC); type: in vivo; settings: for DOPAC Pmol/mg tissue +/− S.E.M. / Dopamine Pmol/mg tissue +/− S.E.M.: 5 mg/kg oral in CMC
Procedure: MPP+ is a neuro-toxin and its injection into the brain causes depletion of striatal dopamine. Male C57bl mice, weighing 24-25 g were divided into 4 groups A-D receiving the following treatments:
A: Oral administration of 0.25% Carboxymethyl cellulose (CMC, 0.1 ml/mouse) and intracerebroventricular (ICV) injection of saline (10 μl/mouse).
B. Oral administration of 5 mg/kg 3a in 0.1 ml CMC, and ICV injection of 10 μl saline.
C. Oral administration of 0.1 ml CMC, and ICV injection of 30 μg MPP+ dissolved in 10 μl saline.
D. Oral administration of 5 mg/kg 3a in 0.1 ml CMC, and ICV injection of 30 μg MPP+ dissolved in 10 μl saline.
3a/CMC or CMC alone were orally administered 30 minutes before and 2 hours after ICV injection. The injection was done according to Haley T. J and McCormick W. G (Brit.J. Pharmacol., 1957, 12, 12) using ether anesthesia. Saline or MPP+/saline were injected during 1 second using a syringe that delivered the liquid at a rate of 0.6 ml/min. Two ICV injections were carried out with a 24 hour interval between them. Mice were killed six days after the last injection and striata taken for dopamine and DOPAC determinations. Each striatum was weighed, homogenized in 0.1M Perchloric acid (0.6 ml) containing 2 mM sodium metabisulfite and 0.3 mM EDTA. After centrifugation at 13000 g for 7 minutes, the supernatant was taken for catecholamine determination. Aliquotes of 20 μl were injected into the solvent stream of an HPLC apparatus equipped with a Microsorb column (packing 3 μm, 4.6 mm diameter, 12.5 cm long). The mobile phase was composed of NaH2PO4 100 mM, octan-1-sulphonic acid 1.5 mM, disodium ethylenediaminetetracetic acid 250 μM, methanol 2.3%, acetonitrile 4% in grade deionized water, at a flow rate of 1.0 ml min^−1. Dopamine and DOPAC were detected with an ESA Coulochem model 5014 detector (Bedford, Mass., USA). Column eluates were initially oxidized by an ESA guard cell (model 5020) at +300 mV, then reduced at +60 mV at detector 1 and measured at detector 2 at −250 mV.

[1] = with ICV MPP+ 30 μg (Group D), striatum six days after last injection
[2] = without MPP+, ICV saline (Group B), striatum

melting point [°C]	SMILES	GMS % Inhibition (EAE) [%]	MMS % Inhibition (EAE) [%]	Mortality % Inhibition (EAE) [%]	Percent of total LDH release (mean ± S.E.M.) (PC-12 cells)	also measured
–	C#CCN(C)c1nc2ccc(OC(F)(F)F)cc2s1 [Compound 3, Methyl-prop-2-ynyl-(6-trifluoromethoxy-benzothiazol-2-yl)-amine]	87.5	73.5	100	–	–
–	C#CCN(C)c1nc2ccc(OC(F)(F)F)cc2s1.Cl [Compound 3a, Methyl-prop-2-ynyl-(6-trifluoromethoxy-benzothiazol-2-yl)-amine.HCl salt]	–	–	–	10.9% and 10.9 ± 2.3%	Effect on MPP+ caused depletion in striatal concentrations of dopamine and DOPAC (C57bl mice; Group D, 5 mg/kg oral, MPP+ ICV): reduced this depletion; DOPAC Pmol/mg tissue +/− S.E.M. (C57bl mice; [1]): 3.7 +/− 0.2 Pmol/mg tissue; Dopamine Pmol/mg tissue +/− S.E.M. (C57bl mice; [1]): 66.0 +/− 3.4 Pmol/mg tissue; DOPAC Pmol/mg tissue +/− S.E.M. (C57bl mice; [2]): 4.8 +/− 0.4 Pmol/mg tissue; Dopamine Pmol/mg tissue +/− S.E.M. (C57bl mice; [2]): 78.2 +/− 4.3 Pmol/mg tissue
138 to 140	C#CCNc1nc2ccc(OC(F)(F)F)cc2s1 [Compound 4, Prop-2-ynyl-(6-trifluoromethoxy-benzothiazol-2-yl)-amine]	–	–	–	–	–
–	C#CCNc1nc2ccc(OC(F)(F)F)cc2s1.Cl [Compound 4a, Prop-2-ynyl-(6-trifluoromethoxy-benzothiazol-2-yl)-amine.HCl salt]	–	–	–	25 ± 8.0%	–
42 to 43	C#CC(C)N(C)c1nc2ccc(OC(F)(F)F)cc2s1 (stereo not drawn) [Compound 6, Methyl-(1-methyl-prop-2-ynyl)-(6-trifluoromethoxy-benzothiazol-2-yl)-amine]	–	–	–	–	–
–	C#CCN(CC(=O)c1ccc(C)cc1)c1nc2ccc(OC(F)(F)F)cc2s1 [Compound 9, 2-[Prop-2-ynyl-(6-trifluoromethoxy-benzothiazole-2-yl)-amino]-1-p-tolyl-ethanone]	57.6	48.8	50	–	–
–	C#CCN=c1sc2cc(OC(F)(F)F)ccc2n1C [Compound 10, (3-Methyl-6-trifluoromethoxy-3H-benzothiazol-2-ylidene)-prop-2-ynyl-amine]	37.5	34.1	40	–	–
98 to 100	C#CCN=c1sc2cc(OC(F)(F)F)ccc2n1CC(=O)c1ccc(C)cc1 [Compound 13, 2-(2-Prop-2-ynylimino-6-trifluoromethoxy-benzothiazole-3-yl)-1-p-tolyl-ethanone]	–	–	–	–	–
–	COCCOC(=O)C1=C(C)NC(C)=C(C(=O)OC(C)C)C1c1cccc([N+](=O)[O-])c1 (stereo not drawn) [Nimodipine, reference compound]	–	–	–	3.6 ± 0.4%	Percent of total LDH release (mean ± S.E.M.) (PC-12 cells; listed as nimodipine): 3.6%
